Numbers after ± are expanded uncertainties.
Conditions: 101.33 kPa, Liquid; for viscosity: Cone and plate viscometry; for mass density: Vibrating tube method

Compound | viscosity (298.2 K) [mPa·s] | mass density (298.2 K) [kg/m3] | viscosity (303.2 K) [mPa·s] | mass density (303.2 K) [kg/m3] | viscosity (308.2 K) [mPa·s] | mass density (308.2 K) [kg/m3] | viscosity (313.2 K) [mPa·s] | mass density (313.2 K) [kg/m3] | viscosity (318.2 K) [mPa·s] | mass density (318.2 K) [kg/m3] | viscosity (323.2 K) [mPa·s] | mass density (323.2 K) [kg/m3] | viscosity (328.2 K) [mPa·s] | mass density (328.2 K) [kg/m3] | viscosity (333.2 K) [mPa·s] | mass density (333.2 K) [kg/m3] | viscosity (338.2 K) [mPa·s] | mass density (338.2 K) [kg/m3] | viscosity (343.2 K) [mPa·s] | mass density (343.2 K) [kg/m3] | other results
c1cn(CCOCCOCCOCCn2ccnc2)cn1 | 535.6 ± 27 | 1172.67 ± 1.2 | 356 ± 16 | 1168.77 ± 1.2 | 240.2 ± 9.5 | 1164.87 ± 1.2 | 178.2 ± 6.2 | 1161.05 ± 1.2 | 129.2 ± 4 | 1157.29 ± 1.2 | 93.9 ± 2.7 | 1153.51 ± 1.2 | 69.8 ± 1.8 | 1149.74 ± 1.2 | 56.8 ± 1.4 | 1145.96 ± 1.2 | 44.9 ± 1.1 | 1142.19 ± 1.1 | 36.7 ± 0.9 | 1138.43 ± 1.1 | viscosity (348.2 K): 29.1 ± 0.7 mPa·s; mass density (348.2 K): 1134.66 ± 1.1 kg/m3; viscosity (353.2 K): 24.9 ± 0.6 mPa·s; mass density (353.2 K): 1130.91 ± 1.1 kg/m3
CCCCCCCCCCCCn1ccnc1 [1-dodecyl-1H-imidazole] | 24 ± 0.3 | 898.68 ± 0.74 | 20.1 ± 0.3 | 895.23 ± 0.73 | 15.9 ± 0.2 | 891.79 ± 0.73 | 13.3 ± 0.2 | 888.35 ± 0.73 | 11.1 ± 0.2 | 884.92 ± 0.72 | 9.42 ± 0.12 | 881.49 ± 0.72 | 8.06 ± 0.1 | 878.07 ± 0.71 | 6.96 ± 0.09 | 874.64 ± 0.71 | 6 ± 0.08 | 871.22 ± 0.71 | 5.33 ± 0.07 | 867.81 ± 0.7 | viscosity (348.2 K): 4.7 ± 0.06 mPa·s; mass density (348.2 K): 864.4 ± 0.7 kg/m3; viscosity (353.2 K): 4.16 ± 0.05 mPa·s; mass density (353.2 K): 860.98 ± 0.7 kg/m3

Source: the NIST ThermoML archive (doi:10.1016/j.fluid.2014.06.026)
